Data as given in article PMC12481569, “Novltex: A New Class of Antibiotics with Potent Activity against Multidrug-Resistant Bacterial Pathogens–Design, Synthesis, and Biological Evaluation” (Journal of Medicinal Chemistry, 2025).
≈ marks a conversion by molar mass, not a printed value. Read-outs that look alike come from different tables or passages of the source.

Tests used:
Assay in all cases: microbe, parasite or virus in culture
[1] = test system: Multidrug-Resistant (MDR) E. faecium; conditions: Enterococcus faecium
Method: (§1) We further evaluated analogue 12 against multidrug-resistant (MDR) strains of S. aureus (acquired from the NARSA collection) and MDR E. faecium (acquired from International Health Management Associates, IHMA, Europe Sarl), comparing its activity to various classes of clinically used antibiotics (Table ).
(§2) MICs were performed as previously reported 4. For MIC testing all peptides were dissolved in DMSO.
(§3) Bacterial cultures were grown overnight on Mueller-Hinton Agar (MHA) plates and adjusted to a final inoculum of 10^5 – 10^6 CFU/mL. 100 µl of ino culum in Meuller -Hinton broth (MHB) was mixed with equal volume of peptides (dissolved in MHB) at 2x their concentration in a 96 well plate . For daptomycin MIC determination, the same protocol was followed with the addition of 50 mg/L calcium chloride to the medium. MIC values were determined in the media contain ing polysorbate 80 (0.002%, v/v) to prevent non -specific adsorption of the peptides to plastic surfaces. The final peptides concentrations ranged from 0.0625 – 32 µg/mL. The 96 well plates were then incubated at 37 °C for 24 h. All the experiments were performed in two independent duplicates and the MIC was determined as the lowest concentration in which no visible growth was observed.
(§4) Antibiotics MIC break points ( µg/mL)
(§5) Table. S4: Susceptibility cut-off values (MIC breakpoints) for various clinical antibiotics. […]

[2] = test system: Multidrug-Resistant (MDR) S. aureus; conditions: for MIC: Staphylococcus aureus, 24 h; for susceptibility/resistance of the S. aureus isolates based on the MIC breakpoints: four MDR S. aureus isolates
Method: as §1, §2, §3, §4, §5

MRSA ATCC 33591 = format: cell-based, Staphylococcus aureus; conditions: broth dilution in MHB with 0.002% v/v polysorbate 80, inoculum 10^5-10^6 CFU/mL, 37 °C, 24 h, no visible growth, two independent duplicates, Table 1
Method: as §2
as §3, with “observed. […]” for “observed.”

[3] = 24 h, read-out: MIC, Enterococcus faecium 1563254
[4] = 24 h, read-out: MIC, Enterococcus faecium 1581582
[5] = 24 h, read-out: MIC, Enterococcus faecium 1766686
[6] = read-out: MIC, Staphylococcus aureus NR 45914
[7] = read-out: MIC, Staphylococcus aureus NR 45926
[8] = read-out: MIC, Staphylococcus aureus NR 45930
[9] = read-out: MIC, Staphylococcus aureus NR 46062

Compound: CC1(C)S[C@@H]2[C@H](NC(=O)[C@H](N)c3ccccc3)C(=O)N2[C@H]1C(=O)O [Ampicillin]
- MIC [1, 3]: > 32 µg/mL
- MIC [1, 4]: > 32 µg/mL
- MIC [1, 5]: > 32 µg/mL
- MIC [2, 6]: 2 µg/mL (≈ 5.72 µM)
- MIC [2, 7]: 32 µg/mL (≈ 91.6 µM)
- MIC [2, 8]: 8 µg/mL (≈ 22.9 µM)
- MIC [2, 9]: 8 µg/mL (≈ 22.9 µM)
- susceptibility/resistance of the S. aureus isolates based on the MIC breakpoints [2]: 3 out of 4 isolates showed resistance

Compound: CO/N=C(\C(=O)N[C@@H]1C(=O)N2C(C(=O)O)=C(COC(C)=O)CS[C@H]12)c1csc(N)n1 [Cefotaxime]
- MIC [1, 3]: > 32 µg/mL
- MIC [1, 4]: > 32 µg/mL
- MIC [1, 5]: > 32 µg/mL
- MIC [2, 6]: 4 µg/mL (≈ 8.78 µM)
- MIC [2, 7]: 16 µg/mL (≈ 35.1 µM)
- MIC [2, 8]: 8 µg/mL (≈ 17.6 µM)
- MIC [2, 9]: 16 µg/mL (≈ 35.1 µM)

Compound: C[C@H]1COc2c(N3CCN(C)CC3)c(F)cc3c(=O)c(C(=O)O)cn1c23 [Levofloxacin]
- MIC [1, 3]: 32 µg/mL (≈ 88.6 µM)
- MIC [1, 4]: 32 µg/mL (≈ 88.6 µM)
- MIC [1, 5]: 32 µg/mL (≈ 88.6 µM)
- MIC [2, 6]: 1 µg/mL (≈ 2.77 µM)
- MIC [2, 7]: 4 µg/mL (≈ 11.1 µM)
- MIC [2, 8]: > 32 µg/mL
- MIC [2, 9]: 32 µg/mL (≈ 88.6 µM)
- susceptibility/resistance of the S. aureus isolates based on the MIC breakpoints [2]: 3 out of 4 isolates showed resistance

Compound: CC(=O)NC[C@H]1CN(c2ccc(N3CCOCC3)c(F)c2)C(=O)O1 [Linezolid]
- MIC [1, 3]: 16 µg/mL (≈ 47.4 µM)
- MIC [1, 4]: 1 µg/mL (≈ 2.96 µM)
- MIC [1, 5]: 1 µg/mL (≈ 2.96 µM)
- MIC ([1]; read-out: MIC, two E. faecium clinical isolates that remained susceptible to linezolid): 1 µg/mL (≈ 2.96 µM)
- MIC [2, 6]: 2 µg/mL (≈ 5.93 µM)
- MIC [2, 7]: 32 µg/mL (≈ 94.9 µM)
- MIC [2, 8]: 4 µg/mL (≈ 11.9 µM)
- MIC [2, 9]: 16 µg/mL (≈ 47.4 µM)
- susceptibility/resistance of the S. aureus isolates based on the MIC breakpoints [2]: 3 out of 4 isolates showed resistance

Compound: CC(C)C[C@@H]1NC(=O)[C@@H](CC(C)C)NC(=O)[C@H](C)NC(=O)[C@@H](NC(=O)[C@H](CO)NC(=O)[C@@H](CCCCN)NC(=O)[C@@H](CC(C)C)NC(=O)[C@@H](N)Cc2ccccc2)[C@@H](C)OC1=O [analogue 1]
- MIC against MRSA ATCC 33591 (MRSA ATCC 33591): 8 µg/mL (≈ 9.15 µM)

Compound: CC(C)C[C@@H]1NC(=O)[C@@H](CC(C)C)NC(=O)[C@H](C)NC(=O)[C@H](NC(=O)[C@H](CO)NC(=O)[C@@H](CCCCN)NC(=O)[C@@H](CC(C)C)NC(=O)[C@@H](N)Cc2ccccc2)[C@H](C)OC1=O [analogue 2]
- MIC against MRSA ATCC 33591 (MRSA ATCC 33591): 32 µg/mL (≈ 36.6 µM)

Compound: CC(C)C[C@H](NC(=O)[C@H](N)Cc1ccccc1)C(=O)N[C@@H](CCCCN)C(=O)N[C@H](CO)C(=O)N[C@H]1C(=O)N[C@@H](C)C(=O)N[C@@H](CC(C)C)C(=O)N[C@@H](CC(C)C)C(=O)O[C@H]1C [analogue 3]
- MIC against MRSA ATCC 33591 (MRSA ATCC 33591): 32 µg/mL (≈ 36.6 µM)

Compound: CC(C)C[C@@H]1NC(=O)[C@H](C)NC(=O)[C@H](NC(=O)[C@H](CO)NC(=O)[C@@H](CCCCN)NC(=O)[C@@H](CC(C)C)NC(=O)[C@@H](N)Cc2ccccc2)[C@H](C)OC(=O)[C@H](CC(C)C)NC1=O [analogue 4]
- MIC against MRSA ATCC 33591 (MRSA ATCC 33591): 2 to 4 µg/mL
- MIC against MRSA ATCC 33591 (MRSA ATCC 33591; listed as Novltex analogue 4): 4 µg/mL (≈ 4.58 µM)

Compound: CC(C)C[C@H](NC(=O)[C@H](N)Cc1ccccc1)C(=O)N[C@H](CCCCN)C(=O)N[C@@H](CO)C(=O)N[C@H]1C(=O)N[C@@H](C)C(=O)N[C@@H](CC(C)C)C(=O)N[C@@H](CC(C)C)C(=O)O[C@H]1C [analogue 5]
- MIC against MRSA ATCC 33591 (MRSA ATCC 33591): > 32 µg/mL

Compound: CC(C)C[C@@H]1NC(=O)[C@H](C)NC(=O)[C@H](NC(=O)[C@@H](CO)NC(=O)[C@H](CCCCN)NC(=O)[C@@H](CC(C)C)NC(=O)[C@@H](N)Cc2ccccc2)[C@H](C)OC(=O)[C@H](CC(C)C)NC1=O [analogue 6]
- MIC against MRSA ATCC 33591 (MRSA ATCC 33591): > 32 µg/mL
